Test results as given in US4606911A, “Pharmaceutical composition for the prevention of dental caries” (Rohto Pharmaceutical Co. Ltd., priority 1984, dated 1986).
In brackets after ≈: the same amount, converted by molar mass. Entries after “also recorded” stand apart in the source; their conditions may differ. Read-outs that look alike come from different tables or passages of the source.

How the values were obtained:
Format in all cases: cell-based
[1] = tested on: Streptococcus mutans OMZ 176; assay: Antibacterial activity (MIC, growth in BHI medium); design: key to Antibacterial activity (growth): -: grow; ±: slightly grow; +: not grow
Method: (§1) To a test tube was charged 3.8 ml of Brain Heart Infusion (BHI) medium, and 100 μl of a sample solution containing oleanolic, ursolic or glycyrrhetic acid and 100 μl of pre-incubated culture of bacterium selected from those listed below were added thereto. The mixture was incubated at 37° C. and then allowed to stand over night. The extent of the growth of bacterium was observed after two or five days.
Streptococcus mutans OMZ 176

[2] = tested on: bacterial cells; assay: Adherence of bacterial cells to the surface of an extracted tooth; conditions: extracted tooth suspended in a culture medium containing sucrose
[3] = tested on: S. mutans OMZ 176 (serotype d); assay: microbe, parasite or virus in culture; conditions: for minimal effective concentration / inhibition at 10 µg/mL / inhibition at 20 µg/mL / inhibition at 30 µg/mL / inhibition at 50 µg/mL / inhibition at 100 µg/mL: Streptococcus mutans; for minimal effective concentration: 20 h, read-out: concentration at which adherence of the bacterial cells is inhibited; for inhibition at 10 µg/mL / inhibition at 20 µg/mL / inhibition at 30 µg/mL / inhibition at 50 µg/mL / inhibition at 100 µg/mL: read-out: Adherence-inhibiting activity (AIP)
Method: The adherence-inhibiting activity of the triterpenes of the formula (I) was measured using an inner wall of a test tube in place of the surface of a tooth.
To 2.9 ml of BHI medium containing 5% sucrose in a test tube (i) are added 30 μl of a sample solution prepared by dissolving a compound of: the formula (I) in H2 O or dimethylsulfoxide (DMSO) and 100 μl of culture medium containing S. mutans OMZ 176 (serotype d) which was preincuvated at 37° C. for 24 hours in BHI medium, and the mixture is incubated at 37° C. for 20 hours, with the test tube being maintained at a slant of 30°. The test tube is revolved gently two or three times and the supernatant is transferred to another test tube (ii). To the first test tube (i) is added 3 ml of 50 mM phosphate buffer (pH 7.5), and the test tube is gently revolved two or three times. The resultant supernatant is transferred to the third test tube (iii). The test tubes (ii) and (iii) are each centrifuged and respective supernatants are discarded. To each of the test tubes (i), (ii) and (iii) is added 3 ml of 0.5M NaOH, and the test tubes are shaken to suspend bacterial cells. Absorbance of the resulting suspension is measured at 660 nm. The absorbances obtained with respect to the test tube (i), (ii) and (iii) are represented by Ab(i), Ab(ii) and Ab(iii), respectively. Ab(i) reflects the amount of the bacterial cells adhered to the wall of the test tube and Ab(ii) and Ab(iii) correspond to the amount of the bacterial cells not adhered to the wall.
The same procedure is repeated using 30 μl of distilled water or DMSO in place of the sample solution to obtain a control. The absorbance of the control is represented by Ab(Cont.).
Adherence percentage of bacteria is calculated from the following equation. [formula]
Adherence inhibitory percentage (AIP) is calculated using the adherence percentage according to the following equation. [formula]
The magnitude of adherence-inhibiting activity of each of the samples is shown, in Table 3, by the use of the following symbols: […]

[4] = tested on: Bacillus megaterium QM B1551; assay: Antibacterial activity (MIC, growth in BHI medium); design: key to Antibacterial activity (growth): -: grow; ±: slightly grow; +: not grow
Method: as §1, with “days. The MIC value was determined for each sample and summarized in Table 2. |Bacillus megaterium QM B1551” for “days.”

[5] = tested on: Streptococcus salivarius ATCC 9222; assay: Antibacterial activity (MIC, growth in BHI medium); design: key to Antibacterial activity (growth): -: grow; ±: slightly grow; +: not grow
Method: as §1, with “days. The MIC value was determined for each sample and summarized in Table 2. |Streptococcus salivarius ATCC 9222” for “days.”

[6] = text statement, listed as pomolic acid

With `CC1(C)CC[C@]2(C(=O)O)CC[C@]3(C)C(=CC[C@@H]4[C@@]5(C)CC[C@H](O)[C@@](C)(CO)[C@@H]5CC[C@]43C)[C@@H]2C1` [Hederagenin] the “antibacterial activity to S. mutans (in words)” value [1] was “almost the same antibacterial activity as oleanolic acid; also recorded: have both of the adherence-inhibiting activity and the selective antibacterial activity to S. mutans; also recorded: have both activities”, the “antibacterial activity at 10 μg/ml (in words)” value ([1]; 10 μg/ml) was “ineffective for exhibiting antibacterial activity” and the “adherence of bacterial cells to the surface of an extracted tooth” value (from here on “adherence of bacterial cells”) [2] was “completely inhibited”. For the same compound, the “adherence-inhibiting activity (in words)” value [3] was “have both of the adherence-inhibiting activity and the selective antibacterial activity to S. mutans; also recorded: have both activities”, the minimal effective concentration [3] was 10 µg/mL and the inhibition at 10 µg/mL [3] was < 25%. The inhibition at 20 µg/mL [3] was > 50%, the inhibition at 30 µg/mL [3] was > 50% and the inhibition at 50 µg/mL [3] was > 50%. The inhibition at 100 µg/mL [3] was > 50%.

`C[C@@H]1CC[C@]2(C(=O)O)CC[C@]3(C)C(=CC[C@@H]4[C@@]5(C)CC[C@H](O)C(C)(C)[C@@H]5CC[C@]43C)[C@@H]2[C@]1(C)O` [Pomolic acid] was tested, and the “antibacterial activity at 10 μg/ml (in words)” value ([1]; 10 μg/ml) was “ineffective for exhibiting antibacterial activity”, the “antibacterial activity to S. mutans (in words)” value ([1]; text statement) was “almost the same antibacterial activity as oleanolic acid” and the “antibacterial activity to S. mutans (in words)” value [1, 6] was “have both of the adherence-inhibiting activity and the selective antibacterial activity to S. mutans; also recorded: have both activities”. For the same compound, the “adherence of bacterial cells” value [2] was “completely inhibited”, the minimal effective concentration [3] was 10 µg/mL and the inhibition at 10 µg/mL [3] was < 25%. The inhibition at 20 µg/mL [3] was > 50%, the inhibition at 30 µg/mL [3] was > 50% and the inhibition at 50 µg/mL [3] was > 50%. For the same compound, the inhibition at 100 µg/mL [3] was > 50% and the “adherence-inhibiting activity (in words)” value [3, 6] was “have both of the adherence-inhibiting activity and the selective antibacterial activity to S. mutans; also recorded: have both activities”.

For `C[C@H]1[C@H](C)CC[C@]2(C(=O)O)CC[C@]3(C)C(=CC[C@@H]4[C@@]5(C)CC[C@H](O)C(C)(C)[C@@H]5CC[C@]43C)[C@H]12` [Ursolic acid], the “Antibacterial activity (growth)” value ([4]; 10 μg/ml) was “-”, the “Antibacterial activity (growth)” value ([4]; 25 μg/ml) was “-” and the “Antibacterial activity (growth)” value ([4]; 50 μg/ml) was “-”. For the same compound, the “Antibacterial activity (growth)” value ([4]; 100 μg/ml) was “-”, the “Antibacterial activity (growth)” value ([4]; 200 μg/ml) was “-” and the “Antibacterial activity (growth)” value ([4]; 400 μg/ml) was “-”. The MIC ([4]; Priestia megaterium, QMB1551, Bacillus megaterium, BHI, 37° C., read-out: MIC (minimum inhibitory concentration)) was > 200 µg/mL, the “Antibacterial activity (growth)” value ([5]; 10 μg/ml) was “-” and the “Antibacterial activity (growth)” value ([5]; 25 μg/ml) was “-”. The “Antibacterial activity (growth)” value ([5]; 50 μg/ml) was “+”, the “Antibacterial activity (growth)” value ([5]; 100 μg/ml) was “+” and the “Antibacterial activity (growth)” value ([5]; 200 μg/ml) was “+”. For the same compound, the “Antibacterial activity (growth)” value ([5]; 400 μg/ml) was “+”, the MIC ([5]; ATCC9222, Streptococcus salivarius, BHI, 37° C., read-out: MIC (minimum inhibitory concentration)) was 25 µg/mL (≈ 54.7 µM) and the “antibacterial activity to S. mutans (in words)” value [1] was “also exhibit the selective activity on S. mutans, although the magnitude of the activity is each less than that of glycyrrthetic acid; also recorded: have both of the adherence-inhibiting activity and the selective antibacterial activity to S. mutans; also recorded: have both activities”. The “Antibacterial activity (growth)” value ([1]; 10 μg/ml) was “-”, the “antibacterial activity at 10 μg/ml (in words)” value ([1]; 10 μg/ml) was “ineffective for exhibiting antibacterial activity” and the “Antibacterial activity (growth)” value ([1]; 25 μg/ml) was “-”. The “Antibacterial activity (growth)” value ([1]; 50 μg/ml) was “+”, the “Antibacterial activity (growth)” value ([1]; 100 μg/ml) was “+” and the “Antibacterial activity (growth)” value ([1]; 200 μg/ml) was “+”. For the same compound, the “Antibacterial activity (growth)” value ([1]; 400 μg/ml) was “+”, the MIC ([1]; Streptococcus mutans, OMZ176, Streptococcus mutans OMZ 176, BHI, 37° C., read-out: MIC (minimum inhibitory concentration)) was 25 µg/mL (≈ 54.7 µM) and the “adherence of bacterial cells” value [2] was “completely inhibited”. The “adherence-inhibiting activity (in words)” value [3] was “have both of the adherence-inhibiting activity and the selective antibacterial activity to S. mutans; also recorded: have both activities”, the minimal effective concentration [3] was 10 µg/mL and the inhibition at 10 µg/mL [3] was > 50%. For the same compound, the inhibition at 20 µg/mL [3] was > 50%, the inhibition at 30 µg/mL [3] was > 50% and the inhibition at 50 µg/mL [3] was > 50%. For the same compound, the inhibition at 100 µg/mL [3] was > 50%.
